According to ChEMBL document CHEMBL1201862, “PubChem BioAssay data set” (2004):
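1) Cells in 96-well plates. 2) Compound, 48 h, 5 concentrations. 3) Linear interpolation between surrounding doses. 4) Unreached endpoint = highest concentration. GI50 is the concentration that inhibits growth by half.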 Calls of active or inactive are those of the source. Cut-off read from the data, not from the text of the source: active = GI50 up to about 1.1 µM and inactive = higher.

Experiments:
Experiment in all cases: DTP human tumour cell line panel, 48 h
786-0 = test system: 786-0
A498 = test system: A498
A549 = test system: A549
ACHN = test system: ACHN
BT-549 = test system: BT-549
CAKI-1 = test system: CAKI-1
CCRF-CEM = test system: CCRF-CEM
COLO 205 = test system: COLO 205
DU-145 = test system: DU-145
EKVX = test system: EKVX
HCC 2998 = test system: HCC 2998
HCT-116 = test system: HCT-116
HCT-15 = test system: HCT-15
HL-60 = test system: HL-60
HOP-62 = test system: HOP-62
HOP-92 = test system: HOP-92
HT-29 = test system: HT-29
Hs-578T = test system: Hs-578T
IGROV-1 = test system: IGROV-1
K562 = test system: K562
KM12 = test system: KM12
LOX IMVI = test system: LOX IMVI
M14 = test system: M14
MCF7 = test system: MCF7
MDA-MB-231 = test system: MDA-MB-231
MDA-MB-435 = test system: MDA-MB-435
MDA-N = test system: MDA-N
MOLT-4 = test system: MOLT-4
Malme-3M = test system: Malme-3M
NCI-H226 = test system: NCI-H226
NCI-H23 = test system: NCI-H23
NCI-H460 = test system: NCI-H460
NCI-H522 = test system: NCI-H522
NCI/ADR-RES = test system: NCI/ADR-RES
OVCAR-3 = test system: OVCAR-3
OVCAR-4 = test system: OVCAR-4
OVCAR-5 = test system: OVCAR-5
OVCAR-8 = test system: OVCAR-8
PC-3 = test system: PC-3
RXF 393 = test system: RXF 393
SF-268 = test system: SF-268
SF-295 = test system: SF-295
SF-539 = test system: SF-539
SK-MEL-28 = test system: SK-MEL-28
SK-MEL-2 = test system: SK-MEL-2
SK-MEL-5 = test system: SK-MEL-5
SK-OV-3 = test system: SK-OV-3
SN12C = test system: SN12C
SNB-19 = test system: SNB-19
SNB-75 = test system: SNB-75
SR = test system: SR
SW-620 = test system: SW-620
T47D = test system: T47D
TK-10 = test system: TK-10
U-251 = test system: U-251
UACC-257 = test system: UACC-257
UACC-62 = test system: UACC-62
UO-31 = test system: UO-31
RPMI-8226 = test system: RPMI-8226

O=C(O)c1[nH]c2c([N+](=O)[O-])cc([N+](=O)[O-])cc2c1C(=O)O
GI50 (786-0): > 100 µM (inactive)
GI50 (A498): > 100 µM (inactive)
GI50 (A549): > 100 µM (inactive)
GI50 (ACHN): > 100 µM (inactive)
GI50 (BT-549): > 100 µM (inactive)
GI50 (CAKI-1): > 100 µM (inactive)
GI50 (CCRF-CEM): > 100 µM (inactive)
GI50 (COLO 205): > 100 µM (inactive)
GI50 (DU-145): > 100 µM (inactive)
GI50 (EKVX): > 100 µM (inactive)
GI50 (HCC 2998): > 100 µM (inactive)
GI50 (HCT-116): > 100 µM (inactive)
GI50 (HCT-15): > 100 µM
GI50 (HL-60): > 100 µM (inactive)
GI50 (HOP-62): > 100 µM (inactive)
GI50 (HOP-92): > 100 µM (inactive)
GI50 (HT-29): > 100 µM (inactive)
GI50 (Hs-578T): > 100 µM (inactive)
GI50 (IGROV-1): > 100 µM (inactive)
GI50 (K562): > 100 µM (inactive)
GI50 (KM12): > 100 µM (inactive)
GI50 (LOX IMVI): > 100 µM (inactive)
GI50 (M14): 56.1 µM (inactive)
GI50 (MCF7): > 100 µM (inactive)
GI50 (MDA-MB-231): > 100 µM (inactive)
GI50 (MDA-MB-435): 52.1 µM (inactive)
GI50 (MDA-N): 29.9 µM (inactive)
GI50 (MOLT-4): > 100 µM (inactive)
GI50 (Malme-3M): > 100 µM (inactive)
GI50 (NCI-H226): > 100 µM (inactive)
GI50 (NCI-H23): > 100 µM (inactive)
GI50 (NCI-H460): > 100 µM (inactive)
GI50 (NCI-H522): 78.9 µM (inactive)
GI50 (NCI/ADR-RES): > 100 µM (inactive)
GI50 (OVCAR-3): > 100 µM (inactive)
GI50 (OVCAR-4): > 100 µM (inactive)
GI50 (OVCAR-5): > 100 µM (inactive)
GI50 (OVCAR-8): > 100 µM (inactive)
GI50 (PC-3): > 100 µM (inactive)
GI50 (RXF 393): > 100 µM (inactive)
GI50 (SF-268): > 100 µM (inactive)
GI50 (SF-295): > 100 µM (inactive)
GI50 (SF-539): > 100 µM (inactive)
GI50 (SK-MEL-28): > 100 µM (inactive)
GI50 (SK-MEL-2): > 100 µM (inactive)
GI50 (SK-MEL-5): > 100 µM (inactive)
GI50 (SK-OV-3): > 100 µM (inactive)
GI50 (SN12C): > 100 µM (inactive)
GI50 (SNB-19): > 100 µM (inactive)
GI50 (SNB-75): > 100 µM (inactive)
GI50 (SR): 75.5 µM (inactive)
GI50 (SW-620): > 100 µM (inactive)
GI50 (T47D): > 100 µM (inactive)
GI50 (TK-10): > 100 µM (inactive)
GI50 (U-251): > 100 µM (inactive)
GI50 (UACC-257): > 100 µM (inactive)
GI50 (UACC-62): > 100 µM (inactive)
GI50 (UO-31): > 100 µM (inactive)

CC(=O)OC1CC[C@@]2(C)C(=CC[C@@H]3[C@@H]2CC[C@]2(C)Nc4nn(S(C)(=O)=O)cc4C[C@@H]32)C1 (some centres not stated)
GI50 (A498): > 100 µM (inactive)
GI50 (BT-549): 20.3 µM (inactive)
GI50 (CAKI-1): 40.1 µM (inactive)
GI50 (CCRF-CEM): 10.6 µM (inactive)
GI50 (COLO 205): 35.7 µM (inactive)
GI50 (DU-145): 35.9 µM (inactive)
GI50 (HCC 2998): 30.4 µM (inactive)
GI50 (HCT-15): 24.2 µM
GI50 (HL-60): > 10 µM (inactive)
GI50 (HOP-62): 43.9 µM (inactive)
GI50 (HOP-92): 49.5 µM (inactive)
GI50 (HT-29): 11.6 µM (inactive)
GI50 (Hs-578T): 67 µM (inactive)
GI50 (IGROV-1): 73.6 µM (inactive)
GI50 (K562): 12.1 µM (inactive)
GI50 (KM12): 31.8 µM (inactive)
GI50 (M14): 20.7 µM (inactive)
GI50 (MCF7): 16.6 µM (inactive)
GI50 (MDA-MB-231): 31 µM (inactive)
GI50 (MDA-MB-435): 20 µM (inactive)
GI50 (MDA-N): 29 µM (inactive)
GI50 (MOLT-4): 16.1 µM (inactive)
GI50 (Malme-3M): 27.3 µM (inactive)
GI50 (NCI-H226): 27.7 µM (inactive)
GI50 (NCI-H23): 35.1 µM (inactive)
GI50 (NCI-H460): 18.7 µM (inactive)
GI50 (NCI-H522): 35.2 µM (inactive)
GI50 (NCI/ADR-RES): 29.9 µM (inactive)
GI50 (OVCAR-3): 24.2 µM (inactive)
GI50 (OVCAR-5): 37.9 µM (inactive)
GI50 (OVCAR-8): 32.5 µM (inactive)
GI50 (PC-3): 28.2 µM (inactive)
GI50 (RPMI-8226): 30 µM (inactive)
GI50 (RXF 393): 18.6 µM (inactive)
GI50 (SF-295): 34 µM (inactive)
GI50 (SK-MEL-28): 28.4 µM (inactive)
GI50 (SK-MEL-2): 22.3 µM (inactive)
GI50 (SK-MEL-5): 15.2 µM (inactive)
GI50 (SK-OV-3): > 100 µM (inactive)
GI50 (SN12C): 59.7 µM (inactive)
GI50 (SNB-19): 79.4 µM (inactive)
GI50 (SNB-75): 24.2 µM (inactive)
GI50 (SR): 36.4 µM (inactive)
GI50 (T47D): 14.2 µM (inactive)
GI50 (U-251): 36.1 µM (inactive)
GI50 (UACC-62): 21.8 µM (inactive)
GI50 (UO-31): 37 µM (inactive)

COc1ccc(N2C=Nn3c(nc4sc5c(c4c3=O)CCCC5)C2)cc1
GI50 (786-0): 5.77 µM (inactive)
GI50 (A498): 14 µM (inactive)
GI50 (A549): > 100 µM (inactive)
GI50 (ACHN): 12.1 µM (inactive)
GI50 (BT-549): 20.7 µM (inactive)
GI50 (CAKI-1): 40.4 µM (inactive)
GI50 (CCRF-CEM): > 100 µM (inactive)
GI50 (COLO 205): > 100 µM (inactive)
GI50 (DU-145): > 100 µM (inactive)
GI50 (EKVX): 73.6 µM (inactive)
GI50 (HCC 2998): 47.8 µM (inactive)
GI50 (HCT-116): 19.4 µM (inactive)
GI50 (HCT-15): > 100 µM
GI50 (HOP-62): 3.09 µM (inactive)
GI50 (HOP-92): 12.2 µM (inactive)
GI50 (HT-29): > 100 µM (inactive)
GI50 (Hs-578T): 3.02 µM (inactive)
GI50 (IGROV-1): > 100 µM (inactive)
GI50 (K562): > 100 µM (inactive)
GI50 (KM12): > 100 µM (inactive)
GI50 (LOX IMVI): 33.6 µM (inactive)
GI50 (M14): 32.5 µM (inactive)
GI50 (MCF7): > 100 µM (inactive)
GI50 (MDA-MB-231): 6.37 µM (inactive)
GI50 (MDA-MB-435): > 100 µM (inactive)
GI50 (MDA-N): > 100 µM (inactive)
GI50 (MOLT-4): > 100 µM (inactive)
GI50 (Malme-3M): 18.1 µM (inactive)
GI50 (NCI-H226): 84.3 µM (inactive)
GI50 (NCI-H23): 26.1 µM (inactive)
GI50 (NCI-H460): 86.9 µM (inactive)
GI50 (NCI-H522): 16.3 µM (inactive)
GI50 (NCI/ADR-RES): > 100 µM (inactive)
GI50 (OVCAR-3): > 100 µM (inactive)
GI50 (OVCAR-4): > 100 µM (inactive)
GI50 (OVCAR-5): 32.4 µM (inactive)
GI50 (OVCAR-8): 51.4 µM (inactive)
GI50 (PC-3): > 100 µM (inactive)
GI50 (RPMI-8226): > 100 µM (inactive)
GI50 (RXF 393): 15.4 µM (inactive)
GI50 (SF-268): 19.2 µM (inactive)
GI50 (SF-295): 18.3 µM (inactive)
GI50 (SK-MEL-28): > 100 µM (inactive)
GI50 (SK-MEL-2): 21.3 µM (inactive)
GI50 (SK-MEL-5): > 100 µM (inactive)
GI50 (SK-OV-3): > 100 µM (inactive)
GI50 (SN12C): > 100 µM (inactive)
GI50 (SNB-19): 28.2 µM (inactive)
GI50 (SNB-75): 8.77 µM (inactive)
GI50 (SR): > 100 µM (inactive)
GI50 (SW-620): > 100 µM (inactive)
GI50 (T47D): > 100 µM (inactive)
GI50 (TK-10): 77.1 µM (inactive)
GI50 (U-251): 16.7 µM (inactive)
GI50 (UACC-257): 56.1 µM (inactive)
GI50 (UACC-62): 12.2 µM (inactive)
GI50 (UO-31): > 100 µM (inactive)
